Test results taken from ChEMBL document CHEMBL1143555, “Development of low molecular weight HIV-1 protease dimerization inhibitors” (J Med Chem, 2005).
pIC50: −log10 of the molar value.

Tests used:
[1] = target: Human immunodeficiency virus type 1 protease (Human immunodeficiency virus 1, UniProt Q72874); assay: Inhibitory concentration against human immunodeficiency virus-1 protease; (competitive inhibitor)
[2] = target: Human immunodeficiency virus type 1 protease (Human immunodeficiency virus 1) (UniProt Q72874); assay: Percent inhibition of human immunodeficiency virus-1 protease after 1 uM treatment

Compound	pIC50 [1]	inhibition [2]
CC(O)[C@H](NC(=O)CCCCCCCCCCCCCCC(=O)N[C@H](CC(=O)N[C@@H](Cc1ccccc1)C(=O)O)C(N)=O)C(=O)N[C@@H](Cc1ccccc1)C(N)=O (stereo not given in full)	4.96	
CC[C@H](C)[C@@H](NC(=O)CCCCNC(=O)CCCCCCCCCCCCCCC(=O)N[C@H](CC(=O)N[C@@H](Cc1ccccc1)C(=O)O)C(N)=O)C(=O)N[C@@H](Cc1ccccc1)C(N)=O		12%
CC[C@H](C)[C@@H](NC(=O)C(CC1CCCC1)NC(=O)CCCCCCCCCCCCCCC(=O)N[C@H](CC(=O)N[C@@H](Cc1ccccc1)C(=O)O)C(N)=O)C(=O)N[C@@H](Cc1ccccc1)C(N)=O (stereo not given in full)		13%
CCC(C)[C@@H](NC(=O)[C@@H](NC(=O)CCCCCCCCCCCCCCC(=O)N[C@H](CC(=O)N[C@@H](Cc1ccccc1)C(=O)O)C(N)=O)C(C)O)C(=O)NC(CC1CC1)C(N)=O (stereo not given in full)		21%
CC[C@H](C)[C@@H](NC(=O)C(CC1CC1)NC(=O)CCCCCCCCCCCCCCC(=O)N[C@H](CC(=O)N[C@@H](Cc1ccccc1)C(=O)O)C(N)=O)C(=O)N[C@@H](Cc1ccccc1)C(N)=O (stereo not given in full)		32%
CCC(C)[C@@H](NC(=O)[C@@H](NC(=O)CCCCCCCCCCCCCCC(=O)N[C@H](CC(=O)N[C@@H](Cc1ccccc1)C(=O)O)C(N)=O)C(C)O)C(=O)NC(C(N)=O)c1ccccc1 (stereo not given in full)		29%
CCC(C)[C@H](NC(=O)CCCCCCCCCCCCCCC(=O)N[C@@H](CC(N)=O)C(=O)NC(Cc1ccc(O)cc1)C(=O)O)C(=O)N[C@H](Cc1ccccc1)C(N)=O (stereo not given in full)		15%
CCC(C)[C@@H](NC(=O)[C@@H](NC(=O)CCCCCCCCCCCCCCC(=O)N[C@H](CC(=O)N[C@@H](Cc1ccccc1)C(=O)O)C(N)=O)C(C)O)C(=O)Nc1ccc(C(N)=O)cc1 (stereo not given in full)		36%
CCC(C)[C@@H](NC(=O)[C@@H](NC(=O)CCCCCCCCCCCCCCC(=O)N[C@H](CC(=O)N[C@@H](Cc1ccccc1)C(=O)O)C(N)=O)C(C)O)C(=O)NC(CO)C(N)=O (stereo not given in full)		8%
CC[C@H](C)[C@@H](NC(=O)C(C)(C)NC(=O)CCCCCCCCCCCCCCC(=O)N[C@H](CC(=O)N[C@@H](Cc1ccccc1)C(=O)O)C(N)=O)C(=O)N[C@@H](Cc1ccccc1)C(N)=O		7%
